Experimental data: patent publication US11267825B2 (AICURIS GMBH & CO. KG, priority 2017, dated 2022)
pEC50, pIC50: −log10 of the molar value.

Legend:
HBV = experiment: Determination of HBV DNA from the supernatants of HepAD38 cells (anti-HBV activity); assay type: cell-based, hepatitis B virus; settings: Hepatitis B virus, 144 h; HBV DNA in HepAD38 supernatant at day 6; read-out: Cell Activity (EC50)
Procedure, shortened: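 HepAD38 cells (60,000/well) were treated with half-log compound dilutions in tetracycline-free medium to induce HBV production. On day 6, HBV DNA was purified from filtered supernatant and quantified by real-time PCR against plasmid standards. EC50 values came from non-linear regression of relative copy numbers, typically from three experiments in triplicate.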

HBV core protein = HBV core protein (UniProt P03146); assay type: biochemical; settings: read-out: Assembly Activity (IC50); BODIPY-FL labelled core protein, assembly started with NaCl, read after 6 min
Procedure, shortened: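 Fluorescence-quenching assembly assay using E. coli-expressed core protein 1–149 plus Cys150, labelled with BODIPY-FL maleimide, at 1.0–2.0 μM in 50 mM HEPES pH 7.5, 0.5% DMSO. Assembly started with NaCl to […]; fluorescence (ex 477/em 525 nm) read after 6 min. EC50 by non-linear regression, 8-point 0.5-log dilutions.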

Chain of HBV core protein (P03146 whole entry, looked up): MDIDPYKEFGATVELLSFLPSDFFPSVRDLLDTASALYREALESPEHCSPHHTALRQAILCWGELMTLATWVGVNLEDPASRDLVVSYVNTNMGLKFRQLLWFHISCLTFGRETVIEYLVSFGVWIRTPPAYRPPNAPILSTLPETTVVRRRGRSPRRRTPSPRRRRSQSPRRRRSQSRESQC

SMILES | pEC50 (HBV) | pIC50 (HBV core protein)
Cc1cc(F)cc2[nH]c(C(=O)N3CCc4nc(N)sc4C3)cc12 [Example 169, 5-(6-fluoro-4-methyl-1H-indole-2-carbonyl)-4H,5H,6H,7H-[1,3]thiazolo[5,4-c]pyridin-2-amine] | > 6.00 | > 5.30
Nc1nc2c(s1)CN(C(=O)c1cc3c(F)ccc(F)c3[nH]1)CC2 [Example 170, 5-(4,7-difluoro-1H-indole-2-carbonyl)-4H,5H,6H,7H-[1,3]thiazolo[5,4-c]pyridin-2-amine] | > 6.00 | > 5.30
Nc1nc2c(s1)CN(C(=O)c1cc3cccc(Br)c3[nH]1)CC2 [Example 171, 5-(7-bromo-1H-indole-2-carbonyl)-4H,5H,6H,7H-[1,3]thiazolo[5,4-c]pyridin-2-amine] | > 6.00 | > 5.30
Nc1nc2c(s1)CN(C(=O)c1cc3c(F)c(F)ccc3[nH]1)CC2 [Example 172, 5-(4,5-difluoro-1H-indole-2-carbonyl)-4H,5H,6H,7H-[1,3]thiazolo[5,4-c]pyridin-2-amine] | > 6.00 | > 5.30
Nc1nc2c(s1)CN(C(=O)c1cc3cccc(OC(F)F)c3[nH]1)CC2 [Example 173, 5-(7-(difluoromethoxy)-1H-indole-2-carbonyl)-4H,5H,6H,7H-[1,3]thiazolo[5,4-c]pyridin-2-amine] | 5.00 to 6.00 | > 5.30
Nc1nc2c(s1)CN(C(=O)c1cc3cccc(OC(F)(F)F)c3[nH]1)CC2 [Example 174, 5-(7-(trifluoromethoxy)-1H-indole-2-carbonyl)-4H,5H,6H,7H-[1,3]thiazolo[5,4-c]pyridin-2-amine] | 5.00 to 6.00 | > 5.30
Nc1nc2c(s1)CN(C(=O)c1cc3c(Cl)c(Cl)ccc3[nH]1)CC2 [Example 176, 5-(4,5-dichloro-1H-indole-2-carbonyl)-4H,5H,6H,7H-[1,3]thiazolo[5,4-c]pyridin-2-amine] | 5.00 to 6.00 | 5.00 to 5.30
Nc1nc2c(s1)CN(C(=O)c1cc3c(Cl)ccc(Cl)c3[nH]1)CC2 [Example 177, 5-(4,7-dichloro-1H-indole-2-carbonyl)-4H,5H,6H,7H-[1,3]thiazolo[5,4-c]pyridin-2-amine] | > 4.00 | > 4.00
CC(O)CNc1nc2c(s1)CN(C(=O)c1cc3ccccc3[nH]1)CC2 (stereo not drawn) [Example 178, 1-{[5-(1H-indole-2-carbonyl)-4H,5H,6H,7H-[1,3]thiazolo[5,4-c]pyridin-2-yl]amino}propan-2-ol] | > 6.00 | > 5.30
NCCNc1nc2c(s1)CN(C(=O)c1cc3ccccc3[nH]1)CC2 [Example 179, N1-[5-(1H-indole-2-carbonyl)-4H,5H,6H,7H-[1,3]thiazolo[5,4-c]pyridin-2-yl]ethane-1,2-diamine] | 5.00 to 6.00 | 5.00 to 5.30
O=C(c1cc2ccccc2[nH]1)N1CCc2nc(NC3CCOC3)sc2C1 (stereo not drawn) [Example 180, 5-(1H-indole-2-carbonyl)-N-(oxolan-3-yl)-4H,5H,6H,7H-[1,3]thiazolo[5,4-c]pyridin-2-amine] | > 6.00 | > 5.30
CN1CCN(CCNc2nc3c(s2)CN(C(=O)c2cc4ccccc4[nH]2)CC3)CC1 [Example 181, 5-(1H-indole-2-carbonyl)-N-[2-(4-methylpiperazin-1-yl)ethyl]-4H,5H,6H,7H-[1,3]thiazolo[5,4-c]pyridin-2-amine] | 5.00 to 6.00 | > 5.30
Cc1nc2c(s1)CN(C(=O)c1cc3cccc(OC(F)F)c3[nH]1)CC2 [Example 182, 7-(difluoromethoxy)-2-{2-methyl-4H,5H,6H,7H-[1,3]thiazolo[5,4-c]pyridine-5-carbonyl}-1H-indole] | 5.00 to 6.00 | > 4.00
Cc1nc2c(s1)CN(C(=O)c1cc3cccc(OC(F)(F)F)c3[nH]1)CC2 [Example 183, 2-{2-methyl-4H,5H,6H,7H-[1,3]thiazolo[5,4-c]pyridine-5-carbonyl}-7-(trifluoromethoxy)-1H-indole] | > 4.00 | > 4.00
Cc1nc2c(s1)CN(C(=O)c1cc3c(C)cccc3[nH]1)CC2 [Example 184, 4-methyl-2-{2-methyl-4H,5H,6H,7H-[1,3]thiazolo[5,4-c]pyridine-5-carbonyl}-1H-indole] | > 6.00 | > 5.30
Cc1nc2c(s1)CN(C(=O)c1cc3c(Cl)c(Cl)ccc3[nH]1)CC2 [Example 185, 4,5-dichloro-2-{2-methyl-4H,5H,6H,7H-[1,3]thiazolo[5,4-c]pyridine-5-carbonyl}-1H-indole] | > 4.00 | > 4.00
Cc1nc2c(s1)CN(C(=O)c1cc3c(Cl)ccc(Cl)c3[nH]1)CC2 [Example 186, 4,7-dichloro-2-{2-methyl-4H,5H,6H,7H-[1,3]thiazolo[5,4-c]pyridine-5-carbonyl}-1H-indole] | > 4.00 | > 4.00
Cc1nc2c(s1)CN(C(=O)c1cc3c(Cl)cc(F)cc3[nH]1)CC2 [Example 187, 4-chloro-6-fluoro-2-{2-methyl-4H,5H,6H,7H-[1,3]thiazolo[5,4-c]pyridine-5-carbonyl}-1H-indole] | > 6.00 | > 5.30
Cc1nc2c(s1)CN(C(=O)c1cc3c(Cl)cc(Cl)cc3[nH]1)CC2 [Example 188, 4,6-dichloro-2-{2-methyl-4H,5H,6H,7H-[1,3]thiazolo[5,4-c]pyridine-5-carbonyl}-1H-indole] | 5.00 to 6.00 | 5.00 to 5.30
Cc1nc2c(s1)CN(C(=O)c1cc3cccc(Cl)c3[nH]1)CC2 [Example 189, 7-chloro-2-{2-methyl-4H,5H,6H,7H-[1,3]thiazolo[5,4-c]pyridine-5-carbonyl}-1H-indole] | 5.00 to 6.00 | 5.00 to 5.30
Cc1nc2c(s1)CN(C(=O)c1cc3c(C)cc(F)cc3[nH]1)CC2 [Example 190, 6-fluoro-4-methyl-2-{2-methyl-4H,5H,6H,7H-[1,3]thiazolo[5,4-c]pyridine-5-carbonyl}-1H-indole] | > 6.00 | > 5.30
Cc1nc2c(s1)CN(C(=O)c1cc3c(F)ccc(F)c3[nH]1)CC2 [Example 191, 4,7-difluoro-2-{2-methyl-4H,5H,6H,7H-[1,3]thiazolo[5,4-c]pyridine-5-carbonyl}-1H-indole] | > 6.00 | 5.00 to 5.30
Cc1nc2c(s1)CN(C(=O)c1cc3c(F)c(F)ccc3[nH]1)CC2 [Example 193, 4,5-difluoro-2-{2-methyl-4H,5H,6H,7H-[1,3]thiazolo[5,4-c]pyridine-5-carbonyl}-1H-indole] | > 6.00 | > 5.30
COc1cccc2[nH]c(C(=O)N3CCc4nc(C)sc4C3)cc12 [Example 194, 4-methoxy-2-{2-methyl-4H,5H,6H,7H-[1,3]thiazolo[5,4-c]pyridine-5-carbonyl}-1H-indole] | > 4.00 | > 4.00
Nc1nc2c(s1)CN(C(=O)c1cc3c(F)cccc3[nH]1)CC2 [Example 195, 5-(4-fluoro-1H-indole-2-carbonyl)-4H,5H,6H,7H-[1,3]thiazolo[5,4-c]pyridin-2-amine] | 5.00 to 6.00 | 5.00 to 5.30
Nc1nc2c(s1)CN(C(=O)c1cc3cc(F)ccc3[nH]1)CC2 [Example 196, 5-(5-fluoro-1H-indole-2-carbonyl)-4H,5H,6H,7H-[1,3]thiazolo[5,4-c]pyridin-2-amine] | 5.00 to 6.00 | > 5.30
Nc1nc2c(s1)CN(C(=O)c1cc3ccc(F)cc3[nH]1)CC2 [Example 197, 5-(6-fluoro-1H-indole-2-carbonyl)-4H,5H,6H,7H-[1,3]thiazolo[5,4-c]pyridin-2-amine] | > 6.00 | > 5.30
